Results as given in patent US9452122B2, “Composition for improving skin conditions, containing extracellular domain of human bone morphogenetic protein receptor 1a as active ingredient” (JOINT CENTER FOR BIOSCIENCES, priority 2011, dated 2016).

System: wrinkles induced by UV radiation in SKH-1 nude mice
Test: Wrinkle improvement effect of thioredoxin-human BMPR1a ECD in UV-irradiated nude mice (Example 5)
Type: in vivo
Details: UV 3 times/week for 11 weeks, 300 μl sample 5 times/week (proteins 1 μM, retinoic acid 0.01%)
Procedure: SKH-1 nude mice (female, 4 weeks old, DooYeol Biotech, Korea) were acclimated for about 2 weeks under conditions of a temperature of 24±2° C. and a humidity of 50±10% in a 12-hr light/12-hr dark cycle, and then divided into six groups for the experiment.
The protein group and control group were respectively treated with […] corresponding samples every week five times. For UV treatment, the back of each mouse was uniformly coated with the previously prepared sample one hour before UV radiation by using Art brush No. 3 (Hwahong, Incheon Korea).
VLX-3W stimulator(Vilber Lourmat, Marne la Vallee, France) was used for a UV radiation equipment. UV radiation was conducted three times every week for a total of 11 weeks: 40 mJ/cm^2 for 1st to 2nd weeks; 50 mJ/cm^2 for 3rd to 4th weeks; 60 mJ/cm^2 for 5th to 9th weeks; and 70 mJ/cm^2 for 10th to 11th weeks.
As the result of integration of the evaluations on respective items through observation by the naked eye, it was verified that skin wrinkles were improved by about 38% in the group coated with retinoic acid, about 42% in the group treated with Lipo-BMPR1a ECD, and about 59% in the group treated with Lipo-thioredoxin-BMPR1a ECD.

`CC1=C(/C=C/C(C)=C/C=C/C(C)=C/C(=O)O)C(C)(C)CCC1` [retinoic acid] was tested, and the “skin wrinkles improved (wrinkle scores of 10 grades from photographs)” value was “about 38%”.
